In patent US9656984B2, “PI3K/AKT/mTOR inhibitors and pharmaceutical uses thereof” (UNIVERSITE DE RENNES 1, priority 2013, dated 2017):

Columns and labels:
[1] = tested on: PI3K/AKT activity (AKT phosphorylation); test: PI3K/AKT/mTOR pathway inhibitory activity: level of AKT phosphorylation in CEM cells over time; assay type: cell-based, human; conditions: 10 μM, FIGS. 7 and 8
Protocol: The CEM cell was incubated with 10 μM of each mentioned compound of formula (I) for the indicated times and then cells were lysed and 100 μg of protein was loaded per line and resolved by SDS-PAGE. The levels of AKT phosphorylation (hallmark of PI3K activation) and total AKT (loading control) were analyzed by Western blot and the amount of AKT phosphorylation relative to the total amount of protein AKT was quantified by densitometric analysis, the intensity of each band was scanned and the level of AKT phosphorylation was reported to the amount of whole AKT and the percentage of phosphorylated-AKT was depicted.
(§1) Immunoblots Excepted for immunoprecipitation experiments in which cells were lyzed with RIPA buffer, cells were lyzed for 30 min at 4° C. in Lysis buffer (25 mM HEPES pH 7.4, 1% v/v Triton X-100, 150 mM NaCl, 2 mM EGTA supplemented with a mix of protease inhibitors). Protein concentration was determined by the bicinchoninic acid method (Pierce, Rockford, Ill., USA) according to the manufacturer's protocol. Proteins were resolved by 8, 10 or 12% SDS-PAGE and transferred to a nitrocellulose membrane (GE Healthcare, Buckinghamshire, UK). The membrane was blocked 15 min with TBST (50 mM Tris, 160 mM NaCl, 0.05% v/v Tween 20, pH 7.4) containing 5% w/v dried skimmed milk (TBS™). Primary antibody was incubated overnight at 4° C. in TBS™. The membrane was intensively washed (TBST) and then the peroxydase-labeled anti-mouse IgG1 or IgG2a (CliniSciences, Nanterre, France) was added for 45 min. Proteins were visualized with the enhanced chemiluminescence substrate kit (ECL RevelBIOt®, Ozyme, Saint Quentin en Yvelines, France).

[2] = target: mTORC1 (Homo sapiens, UniProt P42345); test: Immunoblot of mTORC1 substrates p70S6K-Thr389 and 4EBP1-Thr37 and 46 in CEM cells; assay type: cell-based; design: AML cells (1.10^6 cells) deficient for TSC2 (TS2^−/−) or reconstituted with wild type TSC2; endogenous in cells; conditions: 2 hours, FIG. 16
Protocol: (§2) CEM cells (1·10^6 cells) were incubated with indicated concentrations of compound 25 for 2 hours and lysates of the cells were subjected to Western blot analysis. Inhibitory activity of compound 25 on mTORC1 substrates p70S6K-Thr389 and 4EBP1-Thr37 and 46 and on mTORC2 substrate Akt-Ser473 and on PDK1 substrate Akt-Thr308 was evaluated by immunoblotting. Total 4EBP1, p70S6K, Akt and […] serve as loading controls. The compounds of the invention and more particularly compound 25 may be competitive inhibitors of mTOR because they inhibit mTORC1 (4EBP1 and p70S6K) and mTORC2 substrates (AKT at S473) as shown in FIG. 16.
as §1, with “The membrane was intensively washed (TBST) and then the peroxydase-labeled anti-mouse IgG1 or IgG2a (CliniSciences, Nanterre, France) was added for 45 min. Proteins were visualized with the enhanced chemiluminescence substrate kit (ECL RevelBIOt®, Ozyme, Saint Quentin en Yvelines, France).” left out

[3] = In vivo toxicity, repeated intravenous injections in mice; conditions: 10 mg/kg
Protocol: Mice received repeated intravenous injections of compound 25 (10 mg/kg) or vehicle.

[4] = tested on: T47-D (ER-positive) breast tumor cell line; test: Cell death by MTT assay, T47-D; assay type: cell-based, human; conditions: 24 hours, mean of four experiments
Protocol: The ER-positive breast tumor cell lines MCF-7 and T47-D and the HER2 positive breast tumor cell lines MDA-MB-453 and BT474 (also ER-positive) were incubated with the indicated concentration of each mentioned compound of formula (I) for 24 hours and then cell death was assessed using MTT assay.
For each cell line, the percentage of cell death (mean of four experiments for cell lines MCF-7 and T47-D, and two experiments for cell lines MDA-MB-453 and BT474) is given in view of the increasing concentration of each tested compound of the invention.
(§3) Cell viability was assessed using the 3-[4,5-dimethylthiazol-2-yl]-2,5-diphenyltetrazolium bromide (MTT) viability assay (1). In brief, cells (4×10^4 per well) were cultured for 20 h in flat-bottomed 96 well plates with various concentrations of the apoptosis inducer. Then 0.015 ml of MTT (5 mg/ml in PBS) was added to each well and incubated for 4 h at 37° C. Formazan salt precipitats were dissolved by adding 0.115 ml of isopropyl alcohol containing 1% formic acid (v/v), and the absorbance was measured at 570 nm.

[5] = tested on: MDA-MB-231 cells; test: Boyden chamber cell migration, MDA-MB-231 stimulated with CD95L; assay type: cell-based, human; conditions: MDA-MB-231, 1 μM, CD95L 100 ng/ml, 24 hours, FIG. 17B
Protocol: TNBC (MDA-MB-231 and BT549) cell lines were pre-incubated for 1 hour in presence or absence of non-cytotoxic amount of compound 25 (1 μM) and then treated or untreated with CD95L (100 ng/ml) for 24 hours. Cell migration was analyzed using Boyden chamber assay. Migrating Giemsa-stained cells were lysed and absorbance was measured at a wavelength of 560 nm. Values represent the means±SEM of three independently performed experiments. *p<0.05 as calculated using two-tailed Mann-Whitney test.
After membrane hydration of Boyden chambers (Millipore, Molsheim, France) containing 8 μm pore membranes, 10^5 cells were added to the top chamber. The bottom chamber was filled with low serum (1%)-containing medium in the presence or absence of cl-CD95L (100 ng/ml). Breast cancer cells were incubated for 24 h. To quantify invasion, cells were fixed with methanol and stained with Giemsa. Stained cells were then removed from the top-side of the membrane using a cotton-tipped swab and five representative pictures for each insert were taken of the invading cells from the reverse side. For each experiment, invading cells were lysed and absorbance at 560 nm was measured.

[6] = target: mTORC2 (Homo sapiens, UniProt P42345); test: Immunoblot of mTORC2 substrate Akt-Ser473 in CEM cells; assay type: cell-based; design: endogenous in cells; host or cells: CEM cells; conditions: 2 hours, FIG. 16
Protocol: as §2
as §1, with “The membrane was intensively washed (TBST) and then the peroxydase-labeled anti-mouse IgG1 or IgG2a (CliniSciences, Nanterre, France) was added for 45 min. Proteins were visualized with the enhanced chemiluminescence substrate kit (ECL RevelBIOt®, Ozyme, Saint Quentin en Yvelines, France).” left out

[7] = tested on: TSC2^−/− AML (AngioMyoLipoma) cells; test: Cell viability by MTT assay on TSC2^−/− and TSC2^+/+ AML cells; assay type: cell-based, human; conditions: 16 hours, 1% fetal calf serum
Protocol: AML (AngioMyoLipoma) cells from a patient (generous gift from Dr M. Pende, Paris) were enriched for TSC2^−/− cells, as a model of tuberous sclerosis. These cells have been reconstituted with wild type TSC2 (TSC2^+/+). Cell proliferation was assessed in cells from angiomyolipomas and their counterparts reconstituted with wild type TSC2.
Cell viability was assessed by MTT assay. Cells were incubated for 16 hours in a 1% fetal calf serum-containing medium supplemented with the indicated concentrations of the two mTOR inhibitors, compound 25 or rapamycin (see FIGS. 14B and 14C). Data represent mean and standard deviation of three independent experiments.
as §3

[8] = target: T1, mTOR protein regarding 243 human kinases (Homo sapiens, UniProt P42345); test: Kinome by KinaseProfiler; assay type: biochemical; conditions: 1 μM, FIG. 11
T1 construct: purchased

Compound: O=[N+]([O-])C1=Cc2cc(Br)cc(Br)c2OC1c1ccc(Br)cc1 (centres unmarked) [Compound 25, 6,8-dibromo-2-(4-bromo-phenyl)-3-nitro-2H-chromene]
- inhibitory activity on PI3K/AKT (level of AKT phosphorylation) [1]: very strong inhibitors
- inhibitory activity on mTORC1 substrates (4EBP1 and p70S6K) [2]: inhibit
- toxicity in mice [3]: did not exhibit toxicity
- body weight of the tested mice ([3]; FIG. 13A): maintained
- survival of the tested mice ([3]; at 7 days, FIG. 13B): all mice survived
- percentage of cell death ([4]; 6.25 μM): 85.31%
- percentage of cell death ([4]; 12.5 μM): 91.27%
- percentage of cell death ([4]; 25 μM): 90.23%
- percentage of cell death ([4]; 50 μM): 91.25%
- migration of tumor cells stimulated with CD95L [5]: abrogate
- inhibitory activity on mTORC2 substrate (AKT at S473) [6]: inhibit
- sensitivity of TSC2^−/− cells versus wild type TSC2^+/+ cells (cell death, MTT) ([7]; FIG. 14B): more sensitive
- efficiency to kill TSC2^−/− cells compared with rapamycin ([7]; FIGS. 14B and 14C): more efficient
- selectivity in kinome [8]: selectivity of compound 25 for the mTOR protein
